From patent US12110286B2, “Benzimidazolone derived inhibitors of BCL6” (Cancer Research Technology Limited, priority 2017, dated 2024) come the findings set out here.

The first experiment addresses Trx-6×His-BCL6 (human BCL6 BTB domain covering amino-acid sequence 5-129) (Homo sapiens (Human), UniProt P41182). The experiment is described as follows: HTRF in vitro assay (BCL6 / BCOR-AF633 peptide). Conditions: further generated data; 1 nM Trx-6×His-BCL6, 300 nM BCOR-AF633 peptide, 0.5 nM anti-6×His-Terbium cryptate. The format is binding. How it is done: The % inhibition at each concentration was calculated by normalising FRET ratio to the appropriate high (DMSO with all reagents) and low (DMSO without BCL6) controls.
Background: Time-resolved FRET reads energy transfer from a long-lived donor to a nearby acceptor.
Consider `Cn1c(=O)n(C[C@@H]2CCCN2CC(F)F)c2cc(Nc3ccnc(Cl)c3C#N)ccc21` [Example 25i, (S)-2-chloro-4-((3-((1-(2,2-difluoroethyl)pyrrolidin-2-yl)methyl)-1-methyl-2-oxo-2,3-dihydro-1H-benzo[d]imidazol-5-yl)amino)nicotinonitrile], for which the “HTRF pIC50” value was 5.71.
Same read-out and setting: to `C[C@@H]1CN(c2ncc(Cl)c(Nc3cnc4c(c3)n(CCC(C)(C)O)c(=O)n4CCC(C)(C)O)n2)C[C@H](C)C1(F)F` [Example 35r, 6-((5-chloro-2-((3R,5S)-4,4-difluoro-3,5-dimethylpiperidin-1-yl)pyrimidin-4-yl)amino)-1,3-bis(3-hydroxy-3-methylbutyl)-1,3-dihydro-2H-imidazo[4,5-b]pyridin-2-one] belongs 5.98; to `C[C@@H]1CN(c2ncc(Cl)c(Nc3ccc4c(c3)n(CCC(C)(C)O)c(=O)n4C)n2)C[C@@H]1C` [Example 35p, 5-((5-chloro-2-((3R,4S)-3,4-dimethylpyrrolidin-1-yl)pyrimidin-4-yl)amino)-3-(3-hydroxy-3-methylbutyl)-1-methyl-1,3-dihydro-2H-benzo[d]imidazol-2-one], 6.15.
Still for that read-out and setting: to `CNC(=O)c1cc(Nc2ccc3c(c2)n(CCC(C)C(=O)OC)c(=O)n3C)c(C#N)c(Cl)n1` (stereo not shown) [Example 7a, Methyl 4-[6-[[2-chloro-3-cyano-6-(methylcarbamoyl)-4-pyridyl]amino]-3-methyl-2-oxo-benzimidazol-1-yl]-2-methyl-butanoate] belongs 6.09; to `Cn1c(=O)n(CCC(C)(C)O)c2cc(Nc3nc(N4CCCC(c5ccccc5)C4)ncc3Cl)ccc21` (stereo not shown) [Example 35za, 5-((5-chloro-2-(3-phenylpiperidin-1-yl)pyrimidin-4-yl)amino)-3-(3-hydroxy-3-methylbutyl)-1-methyl-1,3-dihydro-2H-benzo[d]imidazol-2-one], 6.00.
For `Cn1c(=O)n(C[C@@H]2CCC[C@]2(C)O)c2cc(Nc3ccnc(Cl)c3C#N)ccc21` [Example 22n], the “HTRF pIC50” value was 5.90.
Consider `Cn1c(=O)n(CCC(C)(O)C(F)(F)F)c2cc(Nc3ccnc(Cl)c3C#N)ccc21` (stereo not shown) [Example 27d, 2-chloro-4-((1-methyl-2-oxo-3-(4,4,4-trifluoro-3-hydroxy-3-methylbutyl)-2,3-dihydro-1H-benzo[d]imidazol-5-yl)amino)nicotinonitrile], for which the “HTRF pIC50” value is on record as 5.70.
On the same count and under the same terms, to `COC(=O)c1cc(Nc2ccc3c(c2)n(CCC(C)C(=O)OC)c(=O)n3C)c(C#N)c(Cl)n1` (stereo not shown) [Example 2a, Methyl 6-chloro-5-cyano-4-[[3-(4-methoxy-3-methyl-4-oxo-butyl)-1-methyl-2-oxo-benzimidazol-5-yl]amino]pyridine-2-carboxylate] belongs 6.18; to `Cn1c(=O)n(CC2C[C@H](F)CN2CC(F)(F)F)c2cc(Nc3ccnc(Cl)c3C#N)ccc21` (stereo in doubt) [Example 25h, 2-chloro-4-((3-(((2R,4S)-4-fluoro-1-(2,2,2-trifluoroethyl)pyrrolidin-2-yl)methyl)-1-methyl-2-oxo-2,3-dihydro-1H-benzo[d]imidazol-5-yl)amino)nicotinonitrile], 5.55.
On to `Cn1c(=O)n(CCC(C)(C)O)c2cc(Nc3cc(C(F)(F)F)ncc3Cl)ccc21` [Example 29d, 5-((5-chloro-2-(trifluoromethyl)pyridin-4-yl)amino)-3-(3-hydroxy-3-methylbutyl)-1-methyl-1,3-dihydro-2H-benzo[d]imidazol-2-one], for which the “HTRF pIC50” value is 5.48.
Regarding `Cn1ncc2c1CN(c1ncc(Cl)c(Nc3ccc4c(c3)n(CCC(C)(C)O)c(=O)n4C)n1)CC2` [Example 42f, 5-((5-chloro-2-(1-methyl-1,4,5,7-tetrahydro-6H-pyrazolo[3,4-c]pyridin-6-yl)pyrimidin-4-yl)amino)-3-(3-hydroxy-3-methylbutyl)-1-methyl-1,3-dihydro-2H-benzo[d]imidazol-2-one], the “HTRF pIC50” value stood at 6.58.
Take `C[C@@H]1CN(C(=O)c2cc(Nc3ccc4c(c3)n(CCC(C)(C)O)c(=O)n4C)c(Cl)cn2)C[C@H](C)C1(F)F` [Example 36f, 5-((5-chloro-2-((3S,5R)-4,4-difluoro-3,5-dimethylpiperidine-1-carbonyl)pyridin-4-yl)amino)-3-(3-hydroxy-3-methylbutyl)-1-methyl-1,3-dihydro-2H-benzo[d]imidazol-2-one]: the “HTRF pIC50” value is 6.07.
For `Cn1c(=O)n(CCC(C)(C)O)c2cc(Nc3nc(-c4cccs4)ncc3Cl)ccc21` [Example 23d], the “HTRF pIC50” value came out at 5.62.
Regarding `Cn1c(=O)n(CCC2(C)OCCO2)c2cc(Nc3ccnc(Cl)c3C#N)ccc21` [Example 19c], the “HTRF pIC50” value is given as 5.45.
Still for that read-out and setting: as for `CCOC(=O)c1cc(Nc2ccc3c(c2)n(CC[C@@H](C)O)c(=O)n3C)n2nccc2n1` [Example 1o, Ethyl 7-[[3-[(3R)-3-hydroxybutyl]-1-methyl-2-oxo-benzimidazol-5-yl]amino]pyrazolo[1,5-a]pyrimidine-5-carboxylate], the figure is 5.48; as for `Cn1c(=O)n(CCC(C)(C)O)c2cc(Nc3ncnc(Cl)c3C#N)c(F)cc21` [Example 22d], 5.45.
Still for that read-out and setting: as for `CC(Cn1c(=O)n(C)c2ccc(Nc3ccnc(Cl)c3C#N)cc21)C(C)(C)O` (stereo not shown) [Example 27e, 2-chloro-4-((3-(3-hydroxy-2,3-dimethylbutyl)-1-methyl-2-oxo-2,3-dihydro-1H-benzo[d]imidazol-5-yl)amino)nicotinonitrile], the figure is 5.55; as for `CSc1ncc(Cl)c(Nc2ccc3c(c2)n(CCC(C)(C)O)c(=O)n3C)n1` [Example 22a, 5-((5-chloro-2-(methylthio)pyrimidin-4-yl)amino)-3-(3-hydroxy-3-methylbutyl)-1-methyl-1,3-dihydro-2H-benzo[d]imidazol-2-one], 6.19; as for `CCC(=O)CCn1c(=O)n(C)c2ccc(Nc3ccnc(Cl)c3C#N)cc21` [Example 19a, 2-chloro-4-((1-methyl-2-oxo-3-(3-oxopentyl)-2,3-dihydro-1H-benzo[d]imidazol-5-yl)amino)nicotinonitrile], 5.83.
As to `Cn1c(=O)n(CCC(C)(C)O)c2cc(Nc3ccncc3Br)ccc21` [Example 29c, 5-((3-bromopyridin-4-yl)amino)-3-(3-hydroxy-3-methylbutyl)-1-methyl-1,3-dihydro-2H-benzo[d]imidazol-2-one], the “HTRF pIC50” value is 5.38.
As to `CCOC(=O)/C=C/Cn1c(=O)n(CCC(C)(C)O)c2cc(Nc3nc(N4C[C@@H](C)C(F)(F)[C@@H](C)C4)ncc3Cl)ccc21` [Example 38a, ethyl(E)-4-(5-((5-chloro-2-((3S,5R)-4,4-difluoro-3,5-dimethylpiperidin-1-yl)pyrimidin-4-yl)amino)-3-(3-hydroxy-3-methylbutyl)-2-oxo-2,3-dihydro-1H-benzo[d]imidazol-1-yl)but-2-enoate], the “HTRF pIC50” value came to 5.53.
Still for that read-out and setting: to `COC(=O)C(CCn1c(=O)n(C)c2ccc(Nc3ccnc(Cl)c3C#N)cc21)OCC1CC1` (stereo not shown) [Example 10e] belongs 5.38; to `Cn1c(=O)n(CC2CCN2C(=O)OC(C)(C)C)c2cc(Nc3ccnc(Cl)c3C#N)ccc21` (stereo not shown) [Example 19d], 5.44.
In the case of `Cn1c(=O)n(CCC2(C)CO2)c2cc(Nc3ccnc(Cl)c3C#N)ccc21` (stereo not shown) [Example 32, 2-chloro-4-((1-methyl-3-(2-(2-methyloxiran-2-yl)ethyl)-2-oxo-2,3-dihydro-1H-benzo[d]imidazol-5-yl)amino)nicotinonitrile], the “HTRF pIC50” value was 5.44.
On to `Cn1c(=O)n(CCC(C)(C)O)c2cc(Nc3nc(-n4ccc(C(F)(F)F)n4)ncc3Cl)c(F)cc21` [Example 20r], for which the “HTRF pIC50” value was found to be 6.53.
With `Cn1c(=O)n(C[C@@H]2CCCN2CC(F)(F)F)c2cc(Nc3nc(N4CC(C)(C)OC(C)(C)C4)ncc3Cl)ccc21` [Example 35i, (S)-5-((5-chloro-2-(2,2,6,6-tetramethylmorpholino)pyrimidin-4-yl)amino)-1-methyl-3-((1-(2,2,2-trifluoroethyl)pyrrolidin-2-yl)methyl)-1,3-dihydro-2H-benzo[d]imidazol-2-one], the “HTRF pIC50” value was determined as 6.01.

The experiment is the same for the next values; noted with them: initially generated data; 10 nM Trx-6×His-BCL6, 300 nM BCOR-AF633 peptide, 1 nM anti-6×His-Terbium cryptate.
On to `CNC(=O)c1cc(Nc2ccc3c(c2)n(CCC(C)C(=O)OC)c(=O)n3C)c(C#N)c(Cl)n1` (stereo not shown) [Example 7a, Methyl 4-[6-[[2-chloro-3-cyano-6-(methylcarbamoyl)-4-pyridyl]amino]-3-methyl-2-oxo-benzimidazol-1-yl]-2-methyl-butanoate], for which the “HTRF pIC50” value was 5.97.
Turning to `COC(=O)c1cc(Nc2ccc3c(c2)n(CCC(C)C(=O)OC)c(=O)n3C)c(C#N)c(Cl)n1` (stereo not shown) [Example 2a, Methyl 6-chloro-5-cyano-4-[[3-(4-methoxy-3-methyl-4-oxo-butyl)-1-methyl-2-oxo-benzimidazol-5-yl]amino]pyridine-2-carboxylate], the “HTRF pIC50” value turned out to be 6.41.
In the case of `CCOC(=O)c1cc(Nc2ccc3c(c2)n(CC[C@@H](C)O)c(=O)n3C)n2nccc2n1` [Example 1o, Ethyl 7-[[3-[(3R)-3-hydroxybutyl]-1-methyl-2-oxo-benzimidazol-5-yl]amino]pyrazolo[1,5-a]pyrimidine-5-carboxylate], the “HTRF pIC50” value is 5.58.
Take `COC(=O)C(CCn1c(=O)n(C)c2ccc(Nc3ccnc(Cl)c3C#N)cc21)OCC1CC1` (stereo not shown) [Example 10e]: the “HTRF pIC50” value was 5.52.

Staying with this experiment, now noted: result in words.
`Cn1c(=O)n(CC2CCCN(C(=O)OC(C)(C)C)C2)c2cc(Nc3ccnc(Cl)c3C#N)ccc21` (stereo not shown) [tert-butyl 3-((6-((2-chloro-3-cyanopyridin-4-yl)amino)-3-methyl-2-oxo-2,3-dihydro-1H-benzo[d]imidazol-1-yl)methyl)piperidine-1-carboxylate]: the “activity in the HTRF assay” value is “did not exhibit the desired activity”.
Still for that read-out and setting: to `Cn1c(=O)n(CC2CCOCC2)c2cc(Nc3ccnc(Cl)c3C#N)ccc21` [2-chloro-4-((1-methyl-2-oxo-3-((tetrahydro-2H-pyran-4-yl)methyl)-2,3-dihydro-1H-benzo[d]imidazol-5-yl)amino)nicotinonitrile] belongs “did not exhibit the desired activity”; to `Cc1cncnc1Nc1ccc2c(c1)n(C)c(=O)n2C` [1,3-dimethyl-5-((5-methylpyrimidin-4-yl)amino)-1,3-dihydro-2H-benzo[d]imidazol-2-one], “did not exhibit the desired activity”.
On the same count and under the same terms, to `Cn1c(=O)n(CCC(C)(C)O)c2cc(Nc3nc(-n4ccc(C(F)(F)F)n4)ncc3Cl)ncc21` [6-((5-chloro-2-(3-(trifluoromethyl)-1H-pyrazol-1-yl)pyrimidin-4-yl)amino)-1-(3-hydroxy-3-methylbutyl)-3-methyl-1,3-dihydro-2H-imidazo[4,5-c]pyridin-2-one] belongs “did not exhibit the desired activity”.
